# Measurements from PubChem BioAssay AID248 (DTP/NCI, 2004).
# Values joined by “and” are separate entries in the source; they are usually repeats but may differ in a detail not shown here. Equal values may be shown once. Inconclusive results and toxic doses are left out.
# System: L1210 leukemia ip in BDF1 mice, survival T/C
# Assay: NCI In Vivo Anticancer Drug Screen. Data for tumor model L1210 Leukemia (intraperitoneal) in B6D2F1 (BDF1) mice
# Details: endpoint: mean survival time, higher = longer survival
# How it was run: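 Transplantable tumor model; survival measured in treated vs vehicle control mice. Value = treated/control.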
# [1] = dose: 100.0 mg/kg/injection, schedule: Q04DX003 (ip), vehicle: saline with Tween-80
# [2] = dose: 200.0 mg/kg/injection, schedule: Q04DX003 (ip), vehicle: saline with Tween-80
smiles,measurement,setting,value
CC(C)(C)c1ccc(OCCCOc2ccc(C(=O)O)cc2)cc1,T/C,"dose: 100.0 mg/kg/injection, schedule: Q01DX001 (ip), vehicle: Klucel (hydroxypropylcellulose) (HPC)",97 % of control
same,T/C,"dose: 100.0 mg/kg/injection, schedule: Q01DX009 (ip), vehicle: saline sonified",103 % of control
same,T/C,"dose: 200.0 mg/kg/injection, schedule: Q01DX001 (ip), vehicle: Klucel (hydroxypropylcellulose) (HPC)",103 % of control
same,T/C,"dose: 200.0 mg/kg/injection, schedule: Q01DX009 (ip), vehicle: saline sonified",118 % of control
same,T/C,"dose: 400.0 mg/kg/injection, schedule: Q01DX001 (ip), vehicle: Klucel (hydroxypropylcellulose) (HPC)",100 % of control
same,T/C,"dose: 400.0 mg/kg/injection, schedule: Q01DX009 (ip), vehicle: saline sonified",94 % of control
CCn1cnc2c(=S)nc[nH]c21,T/C,"dose: 4.62 mg/kg/injection, schedule: Q01DX Z (ip), vehicle: carboxymethylcellulose (CMC)",98 % of control
same,T/C,"dose: 7.5 mg/kg/injection, schedule: Q01DX005 (ip), vehicle: other",106 % of control
same,T/C,"dose: 7.5 mg/kg/injection, schedule: Q01DX009 (ip), vehicle: other",102 % of control
same,T/C,"dose: 7.5 mg/kg/injection, schedule: Q01DX009 (sc), vehicle: other",124 % of control
same,T/C,"dose: 9.25 mg/kg/injection, schedule: Q01DX Z (ip), vehicle: carboxymethylcellulose (CMC)",108 % of control
same,T/C,"dose: 9.25 mg/kg/injection, schedule: Q01DX Z (oral), vehicle: carboxymethylcellulose (CMC)",110 % of control
same,T/C,"dose: 15.0 mg/kg/injection, schedule: Q01DX005 (ip), vehicle: other",102 % of control
same,T/C,"dose: 15.0 mg/kg/injection, schedule: Q01DX009 (ip), vehicle: other",107 % of control
same,T/C,"dose: 15.0 mg/kg/injection, schedule: Q01DX009 (oral), vehicle: other",115 % of control
same,T/C,"dose: 15.0 mg/kg/injection, schedule: Q01DX009 (sc), vehicle: other",103 % of control
same,T/C,"dose: 18.5 mg/kg/injection, schedule: Q01DX Z (ip), vehicle: carboxymethylcellulose (CMC)",108 % of control
same,T/C,"dose: 18.5 mg/kg/injection, schedule: Q01DX Z (oral), vehicle: carboxymethylcellulose (CMC)",110 % of control
same,T/C,"dose: 30.0 mg/kg/injection, schedule: Q01DX005 (ip), vehicle: other",116 % of control
same,T/C,"dose: 30.0 mg/kg/injection, schedule: Q01DX009 (ip), vehicle: other",117 % of control
same,T/C,"dose: 30.0 mg/kg/injection, schedule: Q01DX009 (oral), vehicle: other",115 % of control
same,T/C,"dose: 30.0 mg/kg/injection, schedule: Q01DX009 (sc), vehicle: other",119 % of control
same,T/C,"dose: 30.0 mg/kg/injection, schedule: Q## X024 (ip), vehicle: other",102 % of control
same,T/C,"dose: 31.3 mg/kg/injection, schedule: Q01DX009 (ip), vehicle: saline",100 % of control and 104 % of control
same,T/C,"dose: 31.3 mg/kg/injection, schedule: Q01DX010 (ip), vehicle: saline",92 % of control and 95 % of control
same,T/C,"dose: 37.0 mg/kg/injection, schedule: Q01DX Z (ip), vehicle: carboxymethylcellulose (CMC)",112 % of control
same,T/C,"dose: 37.0 mg/kg/injection, schedule: Q01DX Z (oral), vehicle: carboxymethylcellulose (CMC)",120 % of control
same,T/C,"dose: 37.5 mg/kg/injection, schedule: Q## X003 (ip), vehicle: other",100 % of control
same,T/C,"dose: 60.0 mg/kg/injection, schedule: Q01DX005 (ip), vehicle: other",123 % of control
same,T/C,"dose: 60.0 mg/kg/injection, schedule: Q## X008 (ip), vehicle: other",107 % of control
same,T/C,"dose: 60.0 mg/kg/injection, schedule: Q## X016 (ip), vehicle: other",109 % of control
same,T/C,"dose: 60.0 mg/kg/injection, schedule: Q## X024 (ip), vehicle: other",114 % of control
same,T/C,"dose: 62.5 mg/kg/injection, schedule: Q01DX009 (ip), vehicle: saline",106 % of control and 112 % of control
same,T/C,"dose: 62.5 mg/kg/injection, schedule: Q01DX010 (ip), vehicle: saline",107 % of control and 108 % of control
same,T/C,"dose: 75.0 mg/kg/injection, schedule: Q01DX001 (ip), vehicle: other",102 % of control
same,T/C,"dose: 75.0 mg/kg/injection, schedule: Q01DX001 (sc), vehicle: other",113 % of control
same,T/C,"dose: 75.0 mg/kg/injection, schedule: Q## X002 (ip), vehicle: other",98 % of control
same,T/C,"dose: 75.0 mg/kg/injection, schedule: Q## X003 (ip), vehicle: other",100 % of control
same,T/C,"dose: 120.0 mg/kg/injection, schedule: Q01DX009 (oral), vehicle: other",151 % of control
same,T/C,"dose: 120.0 mg/kg/injection, schedule: Q## X008 (ip), vehicle: other",117 % of control
same,T/C,"dose: 125.0 mg/kg/injection, schedule: Q01DX010 (ip), vehicle: saline",122 % of control
same,T/C,"dose: 150.0 mg/kg/injection, schedule: Q01DX001 (ip), vehicle: other",108 % of control
same,T/C,"dose: 150.0 mg/kg/injection, schedule: Q01DX001 (oral), vehicle: other",117 % of control
same,T/C,"dose: 150.0 mg/kg/injection, schedule: Q01DX001 (sc), vehicle: other",117 % of control
same,T/C,"dose: 150.0 mg/kg/injection, schedule: Q## X002 (ip), vehicle: other",101 % of control
same,T/C,"dose: 240.0 mg/kg/injection, schedule: Q## X016 (ip), vehicle: other",152 % of control
same,T/C,"dose: 240.0 mg/kg/injection, schedule: Q## X024 (ip), vehicle: other",165 % of control
same,T/C,"dose: 250.0 mg/kg/injection, schedule: Q01DX009 (ip), vehicle: saline",110 % of control and 124 % of control
same,T/C,"dose: 300.0 mg/kg/injection, schedule: Q01DX001 (oral), vehicle: other",119 % of control
same,T/C,"dose: 300.0 mg/kg/injection, schedule: Q## X003 (ip), vehicle: other",162 % of control
same,T/C,"dose: 480.0 mg/kg/injection, schedule: Q## X008 (ip), vehicle: other",157 % of control
same,T/C,"dose: 480.0 mg/kg/injection, schedule: Q## X016 (ip), vehicle: other",153 % of control
same,T/C,"dose: 600.0 mg/kg/injection, schedule: Q01DX001 (oral), vehicle: other",123 % of control
same,T/C,"dose: 600.0 mg/kg/injection, schedule: Q01DX001 (sc), vehicle: other",121 % of control
CCN(Cc1ccccc1)c1nn[nH]n1,T/C,"dose: 100.0 mg/kg/injection, schedule: Q01DX001 (ip), vehicle: saline",98 % of control
same,T/C,"dose: 200.0 mg/kg/injection, schedule: Q01DX001 (ip), vehicle: saline",102 % of control
same,T/C,"dose: 400.0 mg/kg/injection, schedule: Q01DX001 (ip), vehicle: saline",102 % of control
COc1ccccc1C(O)(c1ccccc1)c1ccccc1OC,T/C,"dose: 100.0 mg/kg/injection, schedule: Q04DX003 (ip), vehicle: Klucel (hydroxypropylcellulose) (HPC)",92 % of control
same,T/C,"dose: 200.0 mg/kg/injection, schedule: Q04DX003 (ip), vehicle: Klucel (hydroxypropylcellulose) (HPC)",98 % of control
same,T/C,"dose: 400.0 mg/kg/injection, schedule: Q04DX003 (ip), vehicle: Klucel (hydroxypropylcellulose) (HPC)",97 % of control
Cc1cc(N=Cc2cccc([N+](=O)[O-])c2O)c2ccccc2n1,T/C,"dose: 100.0 mg/kg/injection, schedule: Q01DX001 (ip), vehicle: other",101 % of control
[CH3][Pb]([CH3])([CH3])[O]C(=O)CCl,T/C,"dose: 0.39 mg/kg/injection, schedule: Q01DX009 (ip), vehicle: saline with Tween-80",97 % of control
same,T/C,"dose: 0.78 mg/kg/injection, schedule: Q01DX009 (ip), vehicle: saline with Tween-80",97 % of control
same,T/C,"dose: 1.56 mg/kg/injection, schedule: Q01DX009 (ip), vehicle: saline with Tween-80",95 % of control and 115 % of control
O=C(O)c1ccc[nH]c1=O,T/C,"dose: 100.0 mg/kg/injection, schedule: Q01DX001 (ip), vehicle: saline with Tween-80",97 % of control
same,T/C,"dose: 200.0 mg/kg/injection, schedule: Q01DX001 (ip), vehicle: saline with Tween-80",95 % of control
same,T/C,"dose: 400.0 mg/kg/injection, schedule: Q01DX001 (ip), vehicle: saline with Tween-80",98 % of control
CN(C)C/C(=C\c1ccccc1)C(=O)c1ccccc1,T/C,"dose: 100.0 mg/kg/injection, schedule: Q04DX003 (ip), vehicle: other",98 % of control
COC1(C)C(=O)Oc2c1c1ccccc1c1ccccc21 (stereo not given),T/C,"dose: 75.0 mg/kg/injection, schedule: Q01DX001 (ip), vehicle: carboxymethylcellulose (CMC)",94 % of control
same,T/C,"dose: 150.0 mg/kg/injection, schedule: Q01DX001 (ip), vehicle: carboxymethylcellulose (CMC)",89 % of control
O=C1C2CCC(C2)C1Cl (stereo not given),T/C,"dose: 62.5 mg/kg/injection, schedule: Q04DX003 (ip), vehicle: saline with Tween-80",95 % of control
same,T/C,[1],95 % of control
same,T/C,"dose: 125.0 mg/kg/injection, schedule: Q04DX003 (ip), vehicle: saline with Tween-80",103 % of control
same,T/C,[2],97 % of control
same,T/C,"dose: 250.0 mg/kg/injection, schedule: Q04DX003 (ip), vehicle: saline with Tween-80",104 % of control
same,T/C,"dose: 400.0 mg/kg/injection, schedule: Q04DX003 (ip), vehicle: saline with Tween-80",100 % of control
O=C1N(Cl)C(=O)C(c2ccc(C(F)(F)F)cc2)(c2ccc(C(F)(F)F)cc2)N1Cl,T/C,"dose: 50.0 mg/kg/injection, schedule: Q01DX009 (ip), vehicle: saline with Tween-80",88 % of control
same,T/C,"dose: 100.0 mg/kg/injection, schedule: Q01DX009 (ip), vehicle: saline with Tween-80",100 % of control
same,T/C,[1],102 % of control
same,T/C,[2],100 % of control
